Experimental data reported in patent publication US7611630B2, “Method and device for evaluation of pharmaceutical compositions” (Bend Research, Inc., priority 2004, dated 2009).
Values after ≈ are worked out from the molar mass of the structure shown. Where two headings read alike, the source gives them in different places.

Key:
[1] = membrane-permeation test, plasma-treated (hydrophilic feed side) membrane, PBS feed, decanol permeate; format: in vitro ADME
Method: A cold plasma was used to treat the feed side of a microporous membrane as follows. An Accurel® PP 1E microporous polypropylene membrane was obtained from Membrana GmbH (Wuppertal, Germany). This membrane has a nominal pore size of 0.1 μm, a thickness of about 92 μm, and a porosity of about 70%. The contact angle of a drop of water placed on the untreated membrane is greater than about 110°.
The membrane was rinsed five times in fresh isopropyl alcohol at room temperature for about 24 hours, for a total rinsing time of about 120 hours, and then allowed to air dry. Prior to treatment, the membrane was rinsed in methanol in a sonicating bath for 1 minute at ambient temperature, and then allowed to air dry at ambient temperature.
A sample of the membrane measuring about 10 cm by about 23 cm was placed into a glass-walled plasma chamber having an inside diameter of about 3 inches (7.5 cm). The membrane was positioned such that the permeate side of the membrane was against the glass wall of the plasma chamber. The atmosphere of the plasma chamber was saturated with water vapor at a pressure of 550 mtorr by placing a shallow tray of water into the chamber prior to reducing the pressure using a vacuum pump.
After achieving a constant pressure in the plasma chamber (about 3 to 5 minutes), the plasma was generated using radio frequency (RF) power inductively coupled into the chamber via annular electrodes. The power on the RF generator was set at 50 watts. The membrane was exposed to the plasma for 45 seconds, after which the power was turned off and the pressure in the chamber increased to ambient using air. The contact angle of a drop of water placed on the surface of the plasma-treated membrane was about 40°. The contact angle of a drop of water placed on the permeate side of the same membrane was greater than about 110°.
The crystalline form of the cholesteryl ester transfer protein (CETP) inhibitor [2R,4S]4-[(3,5-bis-trifluoromethyl-benzyl)-methoxycarbonyl-amino]-2-ethyl-6-trifluoromethyl-3,4-dihydro-2H-quinoline-1-carboxylic acid ethyl ester, also known as torcetrapib (“Drug 1”) was evaluated in a membrane-permeation test. An apparatus similar to the one shown schematically in FIG. 3 was assembled as follows. A permeate reservoir was formed by gluing a sample of the plasma-treated membrane described above to a glass tube having an inside diameter of about 1 inch (2.54 cm) using an epoxy-based glue (LOCTITE® E-30CL HYSOL® from Henkel Loctite Corp, Rocky Hill, Conn.). The feed-side of the membrane was oriented so that it was on the outside of the permeate reservoir, while the permeate-side of the membrane was oriented so that it was on the inside of the reservoir. The glue was allowed to set by placing the permeate reservoir in an oven at 50° C. and 25% relative humidity (RH) overnight. The contact angle of a drop of water on the feed side of the membrane after assembling the permeate reservoir was about 50°. The effective membrane area of the permeate reservoir was about 4.9 cm^2.
[…] […] This is well in excess of the solubility of Drug 1 in water, estimated to be less than about 0.04 μg/mL. The feed solution was mixed on a vortex mixer for about 1 minute.
The apparatus was assembled by first filling the permeate reservoir with the permeate solution. The permeate reservoir, with attached membrane, was placed within a glass feed reservoir about 3.3 cm in diameter such that the membrane was held about 1 cm above the bottom of the feed reservoir, and the membrane was wetted by the permeate solution. The feed reservoir was equipped with a magnetic stir bar and the reservoir was placed on a stir plate and adjusted to a stir rate of 600 rpm. Care was taken to ensure no air bubbles were trapped beneath the feed side of the membrane. Time 0 was taken as the time the permeate reservoir was placed within the feed solution reservoir such that the feed solution contacted the membrane surface. […]

[2] = not told, 120 μg/mL
[3] = physchem

## CCOC(=O)N1c2ccc(C(F)(F)F)cc2[C@@H](N(Cc2cc(C(F)(F)F)cc(C(F)(F)F)c2)C(=O)OC)C[C@H]1CC [Drug 1, [2R,4S]4-[(3,5-bis-trifluoromethyl-benzyl)-methoxycarbonyl-amino]-2-ethyl-6-trifluoromethyl-3,4-dihydro-2H-quinoline-1-carboxylic acid ethyl ester]
[1]; 89 μg/mL added to PBS feed, 80 to 160 minutes
  Maximum Flux of Drug 1: 0.025 μg/cm^2-min
[1]; 1000 μg/mL added to PBS feed, 90 to 210 minutes
  Maximum Flux of Drug 1: 0.028 μg/cm^2-min
[1]; 90 to 210 minutes, 1000 μg/mL added to PBS feed
  slope of permeate concentration versus time (least-squares fit): 0.035 μg/mL-min
[1]; time 0 min, 89 μg/mL added to PBS feed
  Drug 1 Concentration in Permeate: 0.0 µg/mL
[1]; time 0 min, 1000 μg/mL added to PBS feed, 37° C., average of duplicate tests
  Drug 1 Concentration in Permeate: 0.0 µg/mL
[1]; time 20 min, 89 μg/mL added to PBS feed
  Drug 1 Concentration in Permeate: 0.0 µg/mL
[1]; time 30 min, 1000 μg/mL added to PBS feed
  Drug 1 Concentration in Permeate: 0.0 µg/mL
[1]; time 40 min, 89 μg/mL added to PBS feed
  Drug 1 Concentration in Permeate: 0.0 µg/mL
[1]; time 60 min, 89 μg/mL added to PBS feed
  Drug 1 Concentration in Permeate: 0.0 µg/mL
[1]; time 60 min, 1000 μg/mL added to PBS feed
  Drug 1 Concentration in Permeate: 0.0 µg/mL
[1]; time 80 min, 89 μg/mL added to PBS feed
  Drug 1 Concentration in Permeate: 1.7 µg/mL
[1]; time 90 min, 1000 μg/mL added to PBS feed
  Drug 1 Concentration in Permeate: 3.3 µg/mL
[1]; time 100 min, 89 μg/mL added to PBS feed
  Drug 1 Concentration in Permeate: 2.2 µg/mL
[1]; time 120 min, 89 μg/mL added to PBS feed
  Drug 1 Concentration in Permeate: 3.0 µg/mL
[1]; time 120 min, 1000 μg/mL added to PBS feed
  Drug 1 Concentration in Permeate: 4.5 µg/mL
[1]; time 140 min, 89 μg/mL added to PBS feed
  Drug 1 Concentration in Permeate: 3.7 µg/mL
[1]; time 150 min, 1000 μg/mL added to PBS feed
  Drug 1 Concentration in Permeate: 6.9 µg/mL
[1]; time 160 min, 89 μg/mL added to PBS feed
  Drug 1 Concentration in Permeate: 4.0 µg/mL
[1]; time 210 min, 1000 μg/mL added to PBS feed
  Drug 1 Concentration in Permeate: 7.4 µg/mL
[1]; time 240 min, 1000 μg/mL added to PBS feed
  Drug 1 Concentration in Permeate: 9.2 µg/mL
[1]; time 270 min, 1000 μg/mL added to PBS feed
  Drug 1 Concentration in Permeate: 11.8 µg/mL
[1]; time 300 min, 1000 μg/mL added to PBS feed
  Drug 1 Concentration in Permeate: 12.2 µg/mL
[1]; time 330 min, 1000 μg/mL added to PBS feed
  Drug 1 Concentration in Permeate: 14.9 µg/mL
[1]; time 360 min, 1000 μg/mL added to PBS feed
  Drug 1 Concentration in Permeate: 13.9 µg/mL
[1]; time 390 min, 1000 μg/mL added to PBS feed
  Drug 1 Concentration in Permeate: 16.9 µg/mL
[1]; time 420 min, 1000 μg/mL added to PBS feed
  Drug 1 Concentration in Permeate: 21.4 µg/mL
[1]; time 450 min, 1000 μg/mL added to PBS feed
  Drug 1 Concentration in Permeate: 21.5 µg/mL
[2]
  Maximum Flux of Drug 1: 0.012 μg/cm^2-min
  maximum flux in solution modeling the fed state relative to MFD solution: 7,6 fold
[3]; aqueous buffer, aqueous solubility in PBS
  solubility: < 4e-05 mg/mL
[3]; organic solvent or mixture, solubility in decanol
  solubility: > 25 mg/mL
[3]; organic solvent or mixture, solubility in organic fluid
  solubility: ~25 mg/mL (≈ 41.6 mM)
[3]; water, aqueous solubility (solubility in water)
  solubility: < 4e-05 mg/mL
